The structures appear in SMILES notation.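 Five concentrations, 48 hours, 96-well plates. Here, GI50 denotes the concentration required for 50% inhibition of growth.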 Activity calls are given as the source filed them. No stated cut-off is given here; in the data, active = GI50 up to about 1.1 µM and inactive = higher. Some results are limits rather than exact numbers.

Among the test systems are A549; ACHN; EKVX; HCC 2998; HOP-92; IGROV-1; K562; MCF7; OVCAR-4; PC-3; RPMI-8226; RXF 393; SK-OV-3; SR; T47D; TK-10; U-251; UACC-257; UO-31; CCRF-CEM.
Common to all, as to test: DTP human tumour cell line panel, 48 h

Take `COc1cccc2[nH]c(-c3ccccn3)nc12`: the GI50 is > 100 µM (inactive) in the assay with A549; 56.2 µM (inactive) with ACHN; > 100 µM (inactive) in the assay on EKVX; > 100 µM (inactive) with HCC 2998; > 100 µM (inactive) in the assay on HOP-92; > 100 µM (inactive) in the assay with IGROV-1. The GI50 is > 100 µM (inactive) in the assay with K562; > 100 µM (inactive) in the assay on MCF7; > 100 µM (inactive) in the assay on OVCAR-4; > 100 µM (inactive) in the assay with PC-3; 32.4 µM (inactive) with RPMI-8226; > 100 µM (inactive) in the assay on RXF 393. The GI50 with SK-OV-3, in the assay with SR, in the assay with T47D, in the assay on TK-10, with U-251 and in the assay on UACC-257 was > 100 µM (inactive) each time. The GI50 in the assay with UO-31 is 44.8 µM (inactive).

Consider `Cc1ccc(SC2=C(N(C)C)C(=O)c3ccccc3C2=O)cc1`, for which the GI50 is 12.6 µM (inactive) in the assay on A549; 6.87 µM (inactive) with ACHN; 1.55 µM (inactive) with CCRF-CEM; 6.71 µM (inactive) in the assay on EKVX; 14 µM (inactive) in the assay with HCC 2998; 4.71 µM (inactive) in the assay on HOP-92. Also, the GI50 was 4.95 µM (inactive) in the assay with IGROV-1; 0.383 µM (active) with K562; 2.31 µM (inactive) with MCF7; 4.06 µM (inactive) in the assay with OVCAR-4; 4.11 µM (inactive) in the assay on PC-3; 2.54 µM (inactive) in the assay with RPMI-8226. Also, the GI50 is 6.15 µM (inactive) with RXF 393; 10.7 µM (inactive) in the assay with SK-OV-3; 0.631 µM (active) in the assay on SR; 3.35 µM (inactive) in the assay with T47D; 7.43 µM (inactive) in the assay with TK-10; 8.05 µM (inactive) in the assay with U-251. The GI50 with UACC-257 is 1.91 µM (inactive); in the assay on UO-31, 10.1 µM (inactive).

Turning to `c1ccc2c3c([nH]c2c1)C1CCCN1CC3` (stereo unspecified), the GI50 in the assay with ACHN, with CCRF-CEM, in the assay with EKVX, with HCC 2998, with HOP-92 and in the assay with IGROV-1 was > 10 µM (inactive) throughout. For the same compound, the GI50 in the assay on K562, in the assay with MCF7, with OVCAR-4, in the assay on PC-3, in the assay with RPMI-8226 and in the assay on RXF 393 was > 10 µM (inactive) throughout. Also, the GI50 in the assay with SK-OV-3, with SR, with T47D, in the assay with TK-10, in the assay on U-251 and in the assay with UACC-257 was > 10 µM (inactive) in each case. In addition, the GI50 in the assay with UO-31 is > 10 µM (inactive).

On to `COc1ccccc1C1c2cc3c(cc2OC(N2CCCC2)C1C)OCO3` (stereo unspecified), for which the GI50 in the assay on A549 was 18.4 µM (inactive); in the assay on ACHN it was 14.5 µM (inactive); with CCRF-CEM, 19.5 µM (inactive); in the assay on EKVX it was 18.3 µM (inactive); in the assay with HCC 2998, 15.8 µM (inactive); with HOP-92 it was 3.08 µM (inactive). For the same compound, the GI50 is 19.3 µM (inactive) in the assay with IGROV-1; 15.1 µM (inactive) in the assay with K562; 18.9 µM (inactive) in the assay on MCF7; 21.6 µM (inactive) in the assay with OVCAR-4; 16 µM (inactive) in the assay on PC-3; 14.8 µM (inactive) with RPMI-8226. Also, the GI50 was 3.76 µM (inactive) in the assay with RXF 393; 6.21 µM (inactive) in the assay on SR; 13.9 µM (inactive) in the assay on T47D; 18.5 µM (inactive) in the assay with TK-10; 18.8 µM (inactive) in the assay with U-251; 20.4 µM (inactive) in the assay on UACC-257. Further, the GI50 with UO-31 was 10.4 µM (inactive).

Take `COC1/C=C/C(C)C(O)CC(O)/C=C/C(C)C(C(C)C(OC)C(C)CCC(=O)C(C)C(C/C=C/N(C)C=O)OC)OC(=O)/C=C/C=C(\C)CC(OC)CC2=CC(=O)O[C@@H](C(C)C(OC)C1)[C@H]2O` (stereo partly specified): the GI50 in the assay on A549 was 0.00507 µM (active); in the assay on ACHN, < 0.005 µM (active); in the assay with CCRF-CEM, 0.00687 µM (active); in the assay with EKVX it was 0.0298 µM (active); in the assay with HCC 2998 it was < 0.005 µM (active); with HOP-92, 0.00612 µM (active). The GI50 in the assay with IGROV-1 is 0.0113 µM (active); with MCF7, 0.00522 µM (active); in the assay on OVCAR-4, 0.0267 µM (active); with PC-3 it was < 0.005 µM (active); in the assay on RPMI-8226 it was 0.00783 µM (active); in the assay on RXF 393, < 0.005 µM (active). In addition, the GI50 in the assay with SK-OV-3 was < 0.005 µM (active); in the assay with SR, 0.00736 µM (active); with T47D, 0.0219 µM (active); in the assay with TK-10, 0.00542 µM (active); in the assay with U-251 it was < 0.005 µM (active); with UACC-257, 0.0103 µM (active). In addition, the GI50 in the assay with UO-31 was 0.00769 µM (active).

On to `NC1=NC(NCC2(CO)CCC2)=CC(OCC2(CO)CCC2)N1` (stereo unspecified), for which the GI50 in the assay with A549, with CCRF-CEM, with EKVX, in the assay with HCC 2998, in the assay on HOP-92 and in the assay on IGROV-1 was > 100 µM (inactive) throughout. Besides, the GI50 in the assay on K562 is 44.8 µM (inactive); in the assay on MCF7, > 100 µM (inactive); with OVCAR-4 it was > 100 µM (inactive); in the assay with PC-3, > 100 µM (inactive); in the assay with RPMI-8226, > 100 µM (inactive); with RXF 393 it was > 100 µM (inactive). Also, the GI50 in the assay on SK-OV-3 was > 100 µM (inactive); in the assay with SR it was 82.8 µM (inactive); in the assay on T47D it was 62.2 µM (inactive); in the assay on U-251, > 100 µM (inactive); with UACC-257, > 100 µM (inactive); in the assay on UO-31, > 100 µM (inactive).

As for `CCCCC(=O)OC[n+]1cccc(-c2c(COC(=O)NC(C)C)c(COC(=O)NC(C)C)c3n2CCC3)c1`, the GI50 in the assay with A549 is 81.1 µM (inactive); in the assay with ACHN, 21.3 µM (inactive); with CCRF-CEM, 7.93 µM (inactive); in the assay on EKVX, > 100 µM (inactive); in the assay on HCC 2998, > 100 µM (inactive); in the assay on HOP-92, 26.3 µM (inactive). For the same compound, the GI50 with IGROV-1 is 51.5 µM (inactive); with K562, 38.6 µM (inactive); in the assay with MCF7 it was 28.8 µM (inactive); in the assay on OVCAR-4, 31.3 µM (inactive); with PC-3, 60.7 µM (inactive); in the assay with RPMI-8226, 30 µM (inactive). The GI50 in the assay on RXF 393 is 22.9 µM (inactive); in the assay with SK-OV-3, > 57.8 µM (inactive); with SR, 4.72 µM (inactive); in the assay on T47D it was > 83.2 µM (inactive); in the assay on TK-10 it was 42.1 µM (inactive); with U-251 it was 45.3 µM (inactive). For the same compound, the GI50 is 44.7 µM (inactive) in the assay on UACC-257 and 27 µM (inactive) with UO-31.

As for `O=C(CCCCCCCCC(=O)N1C(=O)CC(=O)N(c2cccc(Cl)c2)C1=S)N1C(=O)CC(=O)N(c2cccc(Cl)c2)C1=S`, the GI50 with A549 was 32.5 µM (inactive); in the assay on ACHN it was 46.2 µM (inactive); with CCRF-CEM it was 32.7 µM (inactive); in the assay on EKVX it was 38.3 µM (inactive); with HCC 2998, 94.4 µM (inactive); with HOP-92, 20.5 µM (inactive). Moreover, the GI50 with MCF7 is 34.3 µM (inactive); with OVCAR-4, 37.7 µM (inactive); in the assay with PC-3, 26.6 µM (inactive); in the assay with RPMI-8226 it was 27.2 µM (inactive); with RXF 393, 44.9 µM (inactive); in the assay on SK-OV-3, 42.6 µM (inactive). The GI50 is 26.1 µM (inactive) in the assay with SR; 37 µM (inactive) with T47D; 56.9 µM (inactive) with TK-10; 35.6 µM (inactive) in the assay with U-251; 45 µM (inactive) in the assay on UACC-257; 27.5 µM (inactive) in the assay on UO-31.

Take `O=C(NC(O)(C(F)(F)F)C(F)(F)F)c1ccccc1`: the GI50 with A549, in the assay with ACHN, in the assay on CCRF-CEM, in the assay with EKVX, with HCC 2998 and in the assay on HOP-92 was > 100 µM (inactive) each time. For the same compound, the GI50 in the assay on IGROV-1, with K562, with MCF7, in the assay with OVCAR-4, in the assay with PC-3 and in the assay with RPMI-8226 was > 100 µM (inactive) in each case. In addition, the GI50 in the assay with RXF 393, with SK-OV-3, in the assay on SR, in the assay on T47D, in the assay with TK-10 and with U-251 was > 100 µM (inactive) each time. The GI50 with UACC-257 and with UO-31 was > 100 µM (inactive) each time.

Consider `N=C1CCCC1C(=S)SCCC(N)=O` (stereo unspecified), for which the GI50 with A549, in the assay with ACHN, in the assay on CCRF-CEM, in the assay on EKVX, in the assay with HCC 2998 and in the assay on HOP-92 was > 100 µM (inactive) each time. Besides, the GI50 in the assay on IGROV-1, in the assay on MCF7, in the assay on OVCAR-4, in the assay with PC-3, in the assay on RPMI-8226 and with RXF 393 was > 100 µM (inactive) in each case. The GI50 with SK-OV-3 is > 100 µM (inactive); with SR it was 19.3 µM (inactive); in the assay with T47D, > 100 µM (inactive); with TK-10, > 100 µM (inactive); with U-251, > 100 µM (inactive); in the assay on UACC-257, > 100 µM (inactive). The GI50 with UO-31 is > 100 µM (inactive).

For the origin of these results see ChEMBL document CHEMBL1201862, “PubChem BioAssay data set” (2004).
